Consider 21 compounds from patent US11472805B2, “Tricyclic compounds and their use as phosphodiesterase inhibitors” (Pfizer Inc., priority 2015, dated 2022).

Holding throughout (format): biochemical
For assay [1], the target named is Human PDE4A3 (Homo sapiens (Human), UniProt P27815). The experiment in a line: PDE4A3 Scintillation Proximity Assay (SPA), inhibition of enzyme activity. As to conditions: read-out: Human PDE4A FL. Summed up:
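Recombinant human PDE4A3 expressed in insect cells, purified via Ni-NTA, anti-FLAG and size exclusion. SPA run 30 min at 25 °C in 50 mM Tris pH 7.5, 1.3 mM MgCl2, 0.01% Brij with 1 μM cAMP (20 nM 3H-cAMP), […], ~20% substrate conversion; stopped with yttrium silicate beads.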
(In general: In a scintillation proximity assay essentially only radioactivity close to the scintillant gives light.)

Assay [2] concerns the target Human PDE4B1 (Homo sapiens (Human), UniProt Q07343, S133E/S654A/S659A/S661A). In words: PDE4B1 Scintillation Proximity Assay (SPA), inhibition of enzyme activity. As to conditions: read-out: Human PDE4B FL. Summed up:
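His-tagged enzyme from baculovirus-infected insect cells, Ni-NTA purified. SPA with 1 μM cAMP (20 nM 3H-cAMP tracer) in 50 mM Tris pH 7.5, 1.3 mM MgCl2, 0.01% Brij, […] PDE4B enzyme for ~20% substrate conversion; 30 min at 25 °C, stopped with yttrium silicate beads, read after 8 h settling.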

The target of assay [3] is Human PDE4C1 (Homo sapiens (Human), UniProt Q08493). In words: PDE4C1 Scintillation Proximity Assay (SPA), inhibition of enzyme activity. As to conditions: read-out: Human PDE4C FL. The procedure, abridged:
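Recombinant insect-cell-expressed human PDE4C1 […] in 50 mM Tris pH 7.5, 1.3 mM MgCl2, 0.01% Brij with 1 μM cAMP (3H-cAMP tracer), ~20% substrate conversion, inhibitor concentration range. Incubated 30 min at 25° C; stopped with yttrium silicate SPA beads, read by scintillation after 8 h settling.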

Assay [4] concerns the target human PDE4D3 (Homo sapiens (Human), UniProt Q08499). The experiment in a line: PDE4D3 Scintillation Proximity Assay (SPA), inhibition of enzyme activity. As to conditions: read-out: Human PDE4D FL. Summed up:
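His-tagged human PDE4D3 (aa 50–672), expressed in insect cells, hydrolysed 1 μM cAMP (3H tracer plus cold) for 30 min at 25° C in 50 mM Tris pH 7.5, 1.3 mM MgCl2 and 0.01% Brij. Enzyme level was set for ~20% conversion. Product was read by yttrium silicate SPA beads after 8 h settling.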

[5] abbreviates: Table 9, geometric mean of 2-9 determinations unless otherwise indicated.
[6] abbreviates: Table 10, geometric mean of 2-9 determinations unless otherwise indicated.

The structures appear in SMILES notation. Read-outs that look alike come from different tables or passages of the source.

Chain of Human PDE4C1 (Q08493 2-712): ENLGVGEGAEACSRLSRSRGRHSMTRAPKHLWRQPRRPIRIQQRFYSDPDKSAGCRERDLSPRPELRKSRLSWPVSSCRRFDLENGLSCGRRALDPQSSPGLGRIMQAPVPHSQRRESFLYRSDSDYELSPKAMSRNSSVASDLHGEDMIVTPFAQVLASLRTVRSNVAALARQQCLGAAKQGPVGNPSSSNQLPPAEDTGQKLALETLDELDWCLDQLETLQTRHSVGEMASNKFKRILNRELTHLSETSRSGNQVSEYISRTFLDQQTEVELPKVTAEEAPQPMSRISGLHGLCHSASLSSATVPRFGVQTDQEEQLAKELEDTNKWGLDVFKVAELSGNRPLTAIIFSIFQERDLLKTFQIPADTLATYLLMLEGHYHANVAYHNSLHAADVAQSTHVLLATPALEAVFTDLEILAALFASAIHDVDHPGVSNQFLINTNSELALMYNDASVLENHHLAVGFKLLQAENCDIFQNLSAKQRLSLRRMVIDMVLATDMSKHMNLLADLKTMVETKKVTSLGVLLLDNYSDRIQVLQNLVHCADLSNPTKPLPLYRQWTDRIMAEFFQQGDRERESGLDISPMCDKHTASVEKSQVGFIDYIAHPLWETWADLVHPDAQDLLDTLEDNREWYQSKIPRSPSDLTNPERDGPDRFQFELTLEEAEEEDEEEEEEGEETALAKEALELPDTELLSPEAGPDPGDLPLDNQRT
Chain of Human PDE4B1 (Q07343 122-736 S133E/S654A/S659A/S661A): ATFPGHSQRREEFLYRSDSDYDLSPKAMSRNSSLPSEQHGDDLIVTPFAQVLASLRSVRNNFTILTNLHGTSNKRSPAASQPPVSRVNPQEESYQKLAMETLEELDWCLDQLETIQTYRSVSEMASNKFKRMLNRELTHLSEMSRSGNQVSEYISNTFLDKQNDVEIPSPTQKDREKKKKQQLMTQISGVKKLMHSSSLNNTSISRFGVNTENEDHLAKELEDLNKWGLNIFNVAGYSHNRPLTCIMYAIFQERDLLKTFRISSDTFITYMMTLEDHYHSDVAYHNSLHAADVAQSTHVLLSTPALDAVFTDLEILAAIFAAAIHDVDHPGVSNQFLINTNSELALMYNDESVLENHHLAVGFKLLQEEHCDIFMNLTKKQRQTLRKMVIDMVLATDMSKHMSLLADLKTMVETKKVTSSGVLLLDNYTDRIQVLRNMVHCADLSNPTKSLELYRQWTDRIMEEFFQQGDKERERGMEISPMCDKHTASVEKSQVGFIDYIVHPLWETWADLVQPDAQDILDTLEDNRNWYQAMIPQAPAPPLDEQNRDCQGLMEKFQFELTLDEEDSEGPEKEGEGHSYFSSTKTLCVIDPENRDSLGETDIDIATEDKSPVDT
Chain of human PDE4D3 (Q08499 186-808): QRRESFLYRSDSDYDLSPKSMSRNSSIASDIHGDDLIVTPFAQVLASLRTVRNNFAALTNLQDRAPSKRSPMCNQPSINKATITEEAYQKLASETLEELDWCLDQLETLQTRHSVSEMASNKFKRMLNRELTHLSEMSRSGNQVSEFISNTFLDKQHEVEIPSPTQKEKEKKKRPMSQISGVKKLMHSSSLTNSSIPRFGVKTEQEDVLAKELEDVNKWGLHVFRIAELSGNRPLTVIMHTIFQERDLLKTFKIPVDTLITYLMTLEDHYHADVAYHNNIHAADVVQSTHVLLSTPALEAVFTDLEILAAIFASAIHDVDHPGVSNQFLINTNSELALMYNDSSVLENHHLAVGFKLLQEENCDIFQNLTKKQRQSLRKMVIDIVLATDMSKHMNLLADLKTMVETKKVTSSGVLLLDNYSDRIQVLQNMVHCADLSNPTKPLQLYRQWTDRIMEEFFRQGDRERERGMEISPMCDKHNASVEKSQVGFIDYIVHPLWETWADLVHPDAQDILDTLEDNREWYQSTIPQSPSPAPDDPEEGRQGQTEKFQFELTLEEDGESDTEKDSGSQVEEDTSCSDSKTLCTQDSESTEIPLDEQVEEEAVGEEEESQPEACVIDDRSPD
Chain of Human PDE4A3 (P27815 other isoform, or with tags, fused parts or gaps): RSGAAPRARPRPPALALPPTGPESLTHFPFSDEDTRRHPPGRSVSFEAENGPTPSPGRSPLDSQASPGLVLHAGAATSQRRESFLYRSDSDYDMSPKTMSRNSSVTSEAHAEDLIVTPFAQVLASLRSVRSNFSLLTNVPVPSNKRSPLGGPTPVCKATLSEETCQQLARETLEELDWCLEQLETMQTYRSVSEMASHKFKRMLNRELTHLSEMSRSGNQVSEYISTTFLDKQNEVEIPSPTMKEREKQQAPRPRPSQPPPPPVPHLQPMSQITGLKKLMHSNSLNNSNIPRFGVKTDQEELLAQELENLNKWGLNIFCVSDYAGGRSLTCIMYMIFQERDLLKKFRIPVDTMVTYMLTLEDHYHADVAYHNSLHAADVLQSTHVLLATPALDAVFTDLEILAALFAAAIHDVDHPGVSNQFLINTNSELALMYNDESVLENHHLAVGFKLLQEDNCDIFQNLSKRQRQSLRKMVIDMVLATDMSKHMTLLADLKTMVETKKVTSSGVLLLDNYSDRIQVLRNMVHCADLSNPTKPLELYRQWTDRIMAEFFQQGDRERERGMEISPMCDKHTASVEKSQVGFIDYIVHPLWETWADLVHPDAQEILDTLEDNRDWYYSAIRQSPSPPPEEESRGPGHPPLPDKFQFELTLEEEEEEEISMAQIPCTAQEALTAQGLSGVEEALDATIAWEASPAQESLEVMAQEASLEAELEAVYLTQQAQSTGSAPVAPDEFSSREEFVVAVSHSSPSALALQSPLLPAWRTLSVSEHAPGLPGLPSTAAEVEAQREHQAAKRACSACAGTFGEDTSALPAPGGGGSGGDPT

As to `O=C1c2c(-c3cccc(F)c3)c3ncccc3n2CCN1C1CC1` [Example 41, 8-Cyclopropyl-10-(3-fluorophenyl)-7,8-dihydropyrido[2′,3′:4,5]pyrrolo[1,2-a]pyrazin-9(6H)-one], the IC50 in assay [1] (setting [5]) is 1.26 nM; in assay [2] (setting [5]), 2.38 nM; in assay [3] (setting [5]) it was 9.22 nM; in assay [4] (setting [5]) it was 130 nM.

In the case of `O=C1c2c(-c3cnc4ccoc4c3)c3ncccc3n2CCN1C1CC1` [Example 64, 8-Cyclopropyl-10-(furo[3,2-b]pyridin-6-yl)-7,8-dihydropyrido[2′,3′:4,5]pyrrolo[1,2-a]pyrazin-9(6H)-one], the IC50 was determined as 3.56 nM in assay [1] (setting [5]), 11.5 nM in assay [2] (setting [5]), 37.5 nM in assay [3] (setting [5]) and 458 nM in assay [4] (setting [5]).

Take `O=C1c2c(-c3cc(F)c(Cl)cc3F)c3c(n2CCN1C1CC1)CCCO3` [Example 77, 10-(4-Chloro-2,5-difluorophenyl)-8-cyclopropyl-3,4,7,8-tetrahydro-2H-pyrano[2′,3′:4,5]pyrrolo[1,2-a]pyrazin-9(6H)-one]: the IC50 in assay [1] (setting [5]) amounted to 1 nM; in assay [2] (setting [5]), 0.84 nM; in assay [3] (setting [5]), 5.94 nM; in assay [4] (setting [5]), 56.2 nM.

With `COc1ccc(-c2c3n(c4cccnc24)CCN(C2CC2)C3=O)cc1F` [Example 45, 8-Cyclopropyl-10-(3-fluoro-4-methoxyphenyl)-7,8-dihydropyrido[2′,3′:4,5]pyrrolo[1,2-a]pyrazin-9(6H)-one], the IC50 was determined as 1.59 nM in assay [1] (setting [5]), 5.81 nM in assay [2] (setting [5]), 7.88 nM in assay [3] (setting [5]) and 281 nM in assay [4] (setting [5]).

As to `O=C1c2c(-c3cc(F)c(F)c(F)c3)c3ncccc3n2CCN1C1CC1` [Example 40, 8-Cyclopropyl-10-(3,4,5-trifluorophenyl)-7,8-dihydropyrido[2′,3′:4,5]pyrrolo[1,2-a]pyrazin-9(6H)-one], the IC50 in assay [1] (setting [5]) was less than 0.41 nM; in assay [2] (setting [5]), less than 0.67 nM; in assay [3] (setting [5]), 4.36 nM; in assay [4] (setting [5]), 17.2 nM.

`Cc1cc(C#N)ccc1-c1c2n(c3cccnc13)CCN(C1CC1)C2=O` [Example 50, 4-(8-Cyclopropyl-9-oxo-6,7,8,9-tetrahydropyrido[2′,3′:4,5]pyrrolo[1,2-a]pyrazin-10-yl)-3-methylbenzonitrile]: the IC50 in assay [1] (setting [5]) is 2.99 nM; in assay [2] (setting [5]), 6.9 nM; in assay [3] (setting [5]) it was 9.62 nM; in assay [4] (setting [5]), 356 nM.

Consider `O=C1c2c(-c3ccc(Cl)cc3)c3ncccc3n2CCN1c1ncccn1` [Example 1, 10-(4-Chlorophenyl)-8-(pyrimidin-2-yl)-7,8-dihydropyrido[2′,3′:4,5]pyrrolo[1,2-a]pyrazin-9(6H)-one], for which the IC50 turned out to be 18.8 nM in assay [1] (setting [5]), 16.1 nM in assay [2] (setting [5]), 182 nM in assay [3] (setting [5]) and 1230 nM in assay [4] (setting [5]).

Regarding `O=C1c2c(-c3ccc(Cl)cc3)c3ncncc3n2CCN1C1CC1` [Example 25, 10-(4-Chlorophenyl)-8-cyclopropyl-7,8-dihydropyrazino[1′,2′:1,5]pyrrolo[3,2-d]pyrimidin-9(6H)-one], the IC50 worked out at 25 nM in assay [1] (setting [5]), 48.2 nM in assay [2] (setting [5]), 100 nM in assay [3] (setting [5]) and 1780 nM in assay [4] (setting [5]).

`Cc1cc(F)ccc1-c1c2n(c3cccnc13)CCN(C1CC1)C2=O` [Example 49, 8-Cyclopropyl-10-(4-fluoro-2-methylphenyl)-7,8-dihydropyrido[2′,3′:4,5]pyrrolo[1,2-a]pyrazin-9(6H)-one]: the IC50 came out at 2.71 nM in assay [1] (setting [5]), 5.79 nM in assay [2] (setting [5]), 9.39 nM in assay [3] (setting [5]) and 395 nM in assay [4] (setting [5]).

Consider `Cc1ccc(-c2c3ncccc3n3ccn(C4CC4)c(=O)c23)c(C)c1` [Example 66, 8-Cyclopropyl-10-(2,4-dimethyl-phenyl)pyrido[2′,3′:4,5]pyrrolo[1,2-a]pyrazin-9(8H)-one], for which the IC50 in assay [1] (setting [5]) amounted to 5.42 nM; in assay [2] (setting [5]), 6.87 nM; in assay [3] (setting [5]), 16.7 nM; in assay [4] (setting [5]), 460 nM.

Take `Cc1cc(N2CCn3c(c(-c4ccc(Cl)cc4)c4ncccc43)C2=O)no1` [Example 57, 10-(4-Chlorophenyl)-8-(5-methyl-1,2-oxazol-3-yl)-7,8-dihydropyrido[2′,3′:4,5]pyrrolo[1,2-a]pyrazin-9(6H)-one]: the IC50 worked out at 3.49 nM in assay [1] (setting [5]), 3.81 nM in assay [2] (setting [5]), 10.8 nM in assay [3] (setting [5]) and 38.3 nM in assay [4] (setting [5]).

With `CS(=O)(=O)N1CCn2c(c(-c3ccc(Cl)cc3)c3ncccc32)C1=O` [Example 79, 10-(4-Chlorophenyl)-8-(methylsulfonyl)-7,8-dihydropyrido[2′,3′:4,5]pyrrolo[1,2-a]pyrazin-9(6H)-one], the IC50 is 104 nM in assay [1] (setting [6]), 212 nM in assay [2] (setting [6]), 173 nM in assay [3] (setting [6]) and 120 nM in assay [4] (setting [6]).

`CN(C)S(=O)(=O)c1cccc(-c2c3n(c4cccnc24)CCN(C2CC2)C3=O)c1` [Example 85, 3-(8-Cyclopropyl-9-oxo-6,7,8,9-tetrahydropyrido[2′,3′:4,5]pyrrolo[1,2-a]pyrazin-10-yl)-N,N-dimethylbenzenesulfonamide]: the IC50 in assay [1] (setting [6]) was 254 nM; in assay [2] (setting [6]), 437 nM; in assay [3] (setting [6]), 4960 nM; in assay [4] (setting [6]), 724 nM.

Take `O=C1c2c(-c3ccc(Cl)cc3)c3c(n2CCN1C1CC1)CCCO3` [Example 75, 10-(4-Chlorophenyl)-8-cyclopropyl-3,4,7,8-tetrahydro-2H-pyrano[2′,3′:4,5]pyrrolo[1,2-a]pyrazin-9(6H)-one]: the IC50 came out at 1.26 nM in assay [1] (setting [5]), 3.99 nM in assay [2] (setting [5]), 11.7 nM in assay [3] (setting [5]) and 286 nM in assay [4] (setting [5]).

Regarding `O=C1c2c(-c3cccc(Cl)c3)c3ncccc3n2CCN1C1CC1` [Example 48, 10-(3-Chlorophenyl)-8-cyclopropyl-7,8-dihydropyrido[2′,3′:4,5]pyrrolo[1,2-a]pyrazin-9(6H)-one], the IC50 is 1 nM in assay [1] (setting [5]), less than 0.72 nM in assay [2] (setting [5]), 3.16 nM in assay [3] (setting [5]) and 19.8 nM in assay [4] (setting [5]).

Turning to `O=C1c2c(-c3ccc(Cl)cc3)c3ncccc3n2CC2COCCN12` (stereo not drawn) [Example 63, 13-(4-Chlorophenyl)-6a,7,9,10-tetrahydro-6H,12H-pyrido[2″,3″:4′,5′]pyrrolo[1′,2′:4,5]pyrazino[2,1-c][1,4]oxazin-12-one], the IC50 in assay [1] (setting [5]) came out at 219 nM; in assay [2] (setting [5]) it was 32.1 nM; in assay [3] (setting [5]) it was 731 nM; in assay [4] (setting [5]) it was 1350 nM.

Take `O=C1c2c(-c3cncc(Cl)c3)c3ncccc3n2CCN1C1CC1` [Example 51, 10-(5-Chloropyridin-3-yl)-8-cyclopropyl-7,8-dihydropyrido[2′,3′:4,5]pyrrolo[1,2-a]pyrazin-9(6H)-one]: the IC50 in assay [1] (setting [5]) was found to be 86.7 nM; in assay [2] (setting [5]) it was 26.1 nM; in assay [3] (setting [5]) it was 694 nM; in assay [4] (setting [5]), 2010 nM.

For `Cn1ncc(Cl)c1-c1c2n(c3cccnc13)CCN(C1CC1)C2=O` [Example 93, 10-(4-Chloro-1-methyl-1H-pyrazol-5-yl)-8-cyclopropyl-7,8-dihydropyrido[2′,3′:4,5]pyrrolo[1,2-a]pyrazin-9(6H)-one], the IC50 in assay [1] (setting [6]) is 24000 nM; in assay [2] (setting [6]) it was greater than 24700 nM; in assay [3] (setting [6]), 6970 nM; in assay [4] (setting [6]), greater than 30000 nM.

As to `CCNC(=O)N1CCn2c(c(-c3ccc(Cl)cc3)c3ncccc32)C1=O` [Example 80, 10-(4-Chlorophenyl)-N-ethyl-9-oxo-6,7-dihydropyrido[2′,3′:4,5]pyrrolo[1,2-a]pyrazine-8(9H)-carboxamide], the IC50 is 44 nM in assay [1] (setting [6]), 66.2 nM in assay [2] (setting [6]), 106 nM in assay [3] (setting [6]) and 42.8 nM in assay [4] (setting [6]).

In the case of `N#Cc1ccc(-c2c3ncccc3n3ccn(C4CC4)c(=O)c23)cc1` [Example 70, 4-(8-Cyclopropyl-9-oxo-8,9-dihydropyrido[2′,3′:4,5]pyrrolo[1,2-a]pyrazin-10-yl)benzonitrile], the IC50 turned out to be 2.8 nM in assay [1] (setting [5]), 2.67 nM in assay [2] (setting [5]), 8.55 nM in assay [3] (setting [5]) and 108 nM in assay [4] (setting [5]).

For `N#Cc1ccc(-c2c3n(c4cccnc24)CCN(C2CC2)C3=O)cn1` [Example 26, 5-(8-Cyclopropyl-9-oxo-6,7,8,9-tetrahydropyrido[2′,3′:4,5]pyrrolo[1,2-a]pyrazin-10-yl)pyridine-2-carbonitrile], the IC50 came to 8.15 nM in assay [1] (setting [5]), 2.98 nM in assay [2] (setting [5]), 14.8 nM in assay [3] (setting [5]) and 138 nM in assay [4] (setting [5]).
